Legend:
CydDC (C-His6-CydDC) [1] = target: T1, CydDC (C-His6-CydDC) (Escherichia coli, UniProt P23886+P29018, P29018:INS2NS); assay: stimulation of ATPase activity (colorimetric Pi release); type: biochemical; conditions: peak 2 in 0.02% DDM; 5 mM compound; 2 mM ATP, 10 mM MgCl2, pH 7.5, 37 °C; activator
T1 construct: gene cydD; full-length heterodimer (64 + 63 kDa); plasmid pHX100 in E. coli BL21

CydDC (C-His6-CydDC) [2] = target: T1, CydDC (C-His6-CydDC); assay: as above; type: biochemical

N[C@@H](Cc1cnc[nH]1)C(=O)O [L-histidine]
% of basal ATPase activity at 5 mM (CydDC (C-His6-CydDC) [1]): Significant changes in ATPase activity were invoked only with thiols and L-histidine

N[C@@H](CS)C(=O)O [cysteine]
EC50 (CydDC (C-His6-CydDC) [2]): 26 ± 3 µM

From article PMC4132815, “Structure and Function of the Bacterial Heterodimeric ABC Transporter CydDC” (The Journal of Biological Chemistry, 2014)
